Results on six molecules are retold here after patent publication US7119111B2, “2-oxo-1,3,4-trihydroquinazolinyl derivatives and methods of use” (Amgen, Inc., priority 2002, dated 2006).

Data set [1] can be described thus: Cell Proliferation Assay (BrdU incorporation). The format is cell-based. Conditions: Homo sapiens; 48 h incubation, BrdU labeling; cell line not specified; read-out: inhibited cell proliferation IC50. How it is done: Cell proliferation was measured using a calorimetric immunoassay (B/M Roche #164 7229), based on the measurement of pyrimidine analog BrdU incorporation during DNA synthesis in proliferating cells. Cells, e.g., human PC-3 prostate carconima cells, huFSF normal human foreskin fibroblast cells, HCT 116 human colon carcinoma cells or HT 29 human colon carcinoma cells, were cultured in a 96-well plate for 24 h, until a cell count of 3×10^3 to 6×10^3 cells per well in duplicate wells were achieved, in a well volume of 200 μl. The media was changed and 1 μl of 200× control inhibitors or compounds was added to each well. Cells are incubated for 48 h at 37° C. The cells were labeled with BrdU for 4 h at 37° C. The labeling medium was removed and in one step, the cells were fixed and the DNA was denatured (30 min at RT). Anti-BrdU-POD antibody was added to bind to the BrdU incorporated in newly synthesized cellular DNA (60–90 min at RT). The cells were washed 3×with washing buffer, substrate (100 μl) was added and the cells were incubated for 10 min at RT. The substrate reaction was stopped by adding 25 μl of 1M H2SO4. The amount of BrdU incorporated was quantified by measuring the absorbance at 450 nm using ELISA reader. IC50's were calculated using GraFit (Sigma).
In general terms: Dividing cells build labelled thymidine or BrdU into new DNA.

Regarding `Nc1ccc2c(c1)NC(=O)N(c1csc(-c3ccncc3)n1)C2` [Example 28, 7-Amino-3-(2-(4-pyridyl)(1,3-thiazol-4-yl))-1,3,4-trihydroquinazolin-2-one], the IC50 in data set [1] is < 5 µM.

Molecule `O=C1Nc2cc(-c3cccc(O)c3)ccc2CN1c1csc(-c2ccncc2)n1` [Example 31, 7-(3-Hydroxyphenyl)-3-(2-(4-pyridyl) (1,3-thiazol-4-yl))-1,3,4-trihydroquinazolin-2-one] came in with a melting point of 320 to 322 °C. Besides, in data set [1], the IC50 was < 5 µM.

As for `O=C1Nc2cccc(-c3ccccc3)c2CN1c1csc(-c2ccncc2)n1` [Example 34, 5-Phenyl-3-(2-(4-pyridyl)(1,3-thiazol-4-yl))-1,3,4-trihydroquinazolin-2-one], the IC50 in data set [1] is < 5 µM.

`COC(=O)c1cccc2c1CN(c1csc(-c3ccncc3)n1)C(=O)N2` [Example 2, Methyl 2-oxo-3-(2-(4-pyridyl)(1,3-thiazol-4-yl))-1,3,4-trihydroquinazoline-5-carboxylate]: the IC50 in data set [1] is < 5 µM.

In turn, `O=C1Nc2cc(-c3cccc(OCCN4CCCCC4)c3)ccc2CN1c1csc(-c2ccncc2)n1` [Example 32, 7-[3-(2-Piperidylethoxy)phenyl]-3-(2-(4-pyridyl)(1,3-thiazol-4-yl))-1,3,4-trihydroquinazolin-2-one] gave a melting point of 206 to 208 °C. The IC50 in data set [1] was < 5 µM.

Regarding `O=C1Nc2cccc(CN3CCCCC3)c2CN1c1csc(-c2ccncc2)n1` [Example 15, 5-(Piperidylmethyl)-3-(2-(4-pyridyl)(1,3-thiazol-4-yl))-1,3,4-trihydroquinazolin-2-one], the IC50 in data set [1] was < 5 µM.

As a reminder, the melting point is the temperature of the solid-liquid transition.
